Test results: paper PMC10892423 (Pharmaceutics, 2024)
Values belong to the molecule of their own block, whether it stands above or below them.

Key:
[1] = system: MBL-producing P. aeruginosa clinical isolates; experiment: MIC by broth microdilution (CLSI); type: cell-based, Pseudomonas aeruginosa; conditions: Pseudomonas aeruginosa
Description: The DMSO stock solutions of the test compounds were serially diluted to the desired concentrations in CAMHB. Then, 10 μL of the bacterial suspension (5 × 10^5 colony forming units (CFU)/mL) was combined with 200 μL of DMSO stock solutions of the test compounds in 96-well microtiter plates (1% DMSO, final). After the incubation of the plate at 37 °C for 24 h, bacterial growth was visibly evaluated by monitoring the turbidity of the resulting suspension, and the MICs were determined as the lowest concentrations of the test compounds that inhibited the visible growth of the bacteria.

[2] = target: T1, NDM-1 (Klebsiella pneumoniae, UniProt C7C422); experiment: β-lactamase inhibition, imipenem hydrolysis; type: biochemical; conditions: imipenem substrate; read-out: β-Lactamases, IC50 NDM-1
T1 construct: purchased RayBiotech, Inc. 230-00554
From the text: (§1) Recombinant AmpC from Escherichia coli was produced according to a previously reported protocol. KPC-2 and NDM-1 […] were purchased from LifeSpan Biosciences, Inc. (Lynnwood, WA, USA) (LS-G26598) and RayBiotech, Inc. (Peachtree Corners, GA, USA) (230-00554), respectively. Genes encoding OXA-48 (residues 23–265) and VIM-2 (residues 27–266) were custom-synthesized (Bioneer Inc., Seoul, Republic of Korea) and expressed as previously described. The β-lactamase inhibitory activity of the title compounds was then determined according to the previously reported methods. Briefly, equal volumes (100 μL) of the title compounds (70–0.1 μM in PBS) and diluted enzyme stock were mixed (final concentration 2% of DMSO in 200 μL) in 96-well plates, which were then incubated at 37 °C for 20 min. The incubated mixture was added to each well containing substrates (nitrocefin for AmpC, KPC-2, OXA-48, and VIM-2; and imipenem for NDM-1) of final concentrations of 70 μM for nitrocefin and 100 μM for imipenem. Substrate hydrolysis was monitored at 486 nm (nitrocefin) or 300 nm (imipenem) for 15 min, using a Cytation 5 imaging multimode reader (BioTek Instruments Inc., Winooski, VT, USA). At the plateau level of hydrolysis, the corresponding rates of hydrolysis were compared to those obtained without inhibitors (100%) to determine the percentage of enzyme inhibition at each concentration of the title compounds. The IC50 values of the compounds were derived from sigmoidal dose–response curves, using GraphPad Prism 5 (GraphPad Software, Boston, MA, USA).

[3] = target: T2, AmpC (Escherichia coli, UniProt P00811); experiment: β-lactamase inhibition, nitrocefin hydrolysis; type: biochemical
T2 construct: made in house
From the text: as §1

[4] = target: T3, OXA-48 (Klebsiella pneumoniae, UniProt Q6XEC0); experiment: β-lactamase inhibition, nitrocefin hydrolysis; type: biochemical; conditions: nitrocefin substrate; read-out: β-Lactamases, IC50 OXA-48
T3 construct: Genes encoding OXA-48 (residues 23–265) and VIM-2 (residues 27–266) were custom-synthesized; made in house
From the text: as §1

[5] = target: T4, KPC-2 (Klebsiella pneumoniae, UniProt Q9F663); experiment: β-lactamase inhibition, nitrocefin hydrolysis; type: biochemical; conditions: nitrocefin substrate; read-out: β-Lactamases, IC50 KPC-2
T4 construct: purchased LifeSpan Biosciences, Inc. LS-G26598
From the text: as §1

[6] = target: T5, VIM-2 (Escherichia coli, UniProt Q5U7L7); experiment: β-lactamase inhibition, nitrocefin hydrolysis; type: biochemical; conditions: nitrocefin substrate; read-out: β-Lactamases, IC50 VIM-2
T5 construct: Genes encoding OXA-48 (residues 23–265) and VIM-2 (residues 27–266) were custom-synthesized; made in house
From the text: as §1

T2 sequence (P00811 20-377): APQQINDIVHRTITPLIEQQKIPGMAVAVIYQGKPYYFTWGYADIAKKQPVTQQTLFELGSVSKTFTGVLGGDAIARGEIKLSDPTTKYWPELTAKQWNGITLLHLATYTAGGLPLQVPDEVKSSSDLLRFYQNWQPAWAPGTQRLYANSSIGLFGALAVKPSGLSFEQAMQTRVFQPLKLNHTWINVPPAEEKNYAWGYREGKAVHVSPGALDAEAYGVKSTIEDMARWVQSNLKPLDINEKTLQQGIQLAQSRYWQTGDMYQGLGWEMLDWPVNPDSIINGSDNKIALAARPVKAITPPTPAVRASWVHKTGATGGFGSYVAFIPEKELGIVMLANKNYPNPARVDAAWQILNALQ
T4 sequence (Q9F663 25-293, looked up): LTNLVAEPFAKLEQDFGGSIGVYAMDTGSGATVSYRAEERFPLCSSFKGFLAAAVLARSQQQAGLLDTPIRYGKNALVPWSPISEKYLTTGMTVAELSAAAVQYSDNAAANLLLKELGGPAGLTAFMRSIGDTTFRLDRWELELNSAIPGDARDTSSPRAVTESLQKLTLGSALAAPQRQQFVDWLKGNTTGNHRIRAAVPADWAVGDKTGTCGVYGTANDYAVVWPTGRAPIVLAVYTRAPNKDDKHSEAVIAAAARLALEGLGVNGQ
T3 sequence (Q6XEC0 23-265 limits assumed): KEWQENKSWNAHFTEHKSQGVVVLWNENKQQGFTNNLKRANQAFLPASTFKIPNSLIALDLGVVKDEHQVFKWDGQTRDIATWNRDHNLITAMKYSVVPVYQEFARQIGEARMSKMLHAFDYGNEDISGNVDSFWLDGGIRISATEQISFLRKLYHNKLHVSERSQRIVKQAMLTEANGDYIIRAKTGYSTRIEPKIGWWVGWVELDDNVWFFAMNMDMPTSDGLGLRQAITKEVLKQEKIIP
T1 sequence (C7C422 29-270, looked up, species assumed): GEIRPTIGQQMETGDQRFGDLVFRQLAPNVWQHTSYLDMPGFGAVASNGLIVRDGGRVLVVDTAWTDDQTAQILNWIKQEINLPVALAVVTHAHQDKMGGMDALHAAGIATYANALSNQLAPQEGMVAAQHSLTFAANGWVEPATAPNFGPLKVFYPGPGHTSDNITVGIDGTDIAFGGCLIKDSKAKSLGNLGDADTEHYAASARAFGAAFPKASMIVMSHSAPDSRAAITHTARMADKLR

MIC ([1]; PA-001, blaNDM): > 32 µg/mL
MIC ([1]; PA-002, blaIMP): > 32 µg/mL
MIC ([1]; PA-007, blaNDM): > 32 µg/mL
MIC ([1]; PA-008, blaNDM): > 32 µg/mL
MIC ([1]; PA-011, blaNDM): > 32 µg/mL
MIC ([1]; PA-012, blaNDM): ≤ 4 µg/mL
MIC ([1]; PA-016, blaIMP): > 32 µg/mL
MIC ([1]; PA-017, blaNDM): > 32 µg/mL
MIC ([1]; PA-019, blaNDM): > 32 µg/mL
MIC ([1]; PA-020, blaNDM): > 32 µg/mL
MIC ([1]; PA-023, blaNDM): > 32 µg/mL
MIC ([1]; PA-025, blaNDM): > 32 µg/mL
MIC ([1]; PA-027, blaIMP): > 32 µg/mL
MIC ([1]; PA-028, blaNDM): > 32 µg/mL
MIC ([1]; PA-029, blaIMP): > 32 µg/mL
MIC ([1]; PA-030, blaIMP): > 32 µg/mL
MIC ([1]; PA-034, blaNDM): > 32 µg/mL
MIC ([1]; PA-036, blaNDM): > 32 µg/mL
MIC ([1]; PA-038, blaNDM): > 32 µg/mL
MIC ([1]; PA-039, blaNDM): ≤ 4 µg/mL
MIC ([1]; PA-044, blaNDM): > 32 µg/mL
Compound: NCC[C@H](O)C(=O)N[C@@H]1C[C@H](N)[C@@H](O[C@H]2O[C@H](CN)[C@@H](O)[C@H](O)[C@H]2O)[C@H](O)[C@H]1O[C@H]1O[C@H](CO)[C@@H](O)[C@H](N)[C@H]1O [AMK, amikacin]

MIC ([1]; PA-001, blaNDM): > 16 µg/mL
MIC ([1]; PA-002, blaIMP): > 16 µg/mL
MIC ([1]; PA-007, blaNDM): > 16 µg/mL
MIC ([1]; PA-008, blaNDM): > 16 µg/mL
MIC ([1]; PA-011, blaNDM): > 16 µg/mL
MIC ([1]; PA-012, blaNDM): > 16 µg/mL
MIC ([1]; PA-016, blaIMP): > 16 µg/mL
MIC ([1]; PA-017, blaNDM): > 16 µg/mL
MIC ([1]; PA-019, blaNDM): > 16 µg/mL
MIC ([1]; PA-020, blaNDM): > 16 µg/mL
MIC ([1]; PA-023, blaNDM): > 16 µg/mL
MIC ([1]; PA-025, blaNDM): > 16 µg/mL
MIC ([1]; PA-027, blaIMP): > 16 µg/mL
MIC ([1]; PA-028, blaNDM): > 16 µg/mL
MIC ([1]; PA-029, blaIMP): > 16 µg/mL
MIC ([1]; PA-030, blaIMP): > 16 µg/mL
MIC ([1]; PA-034, blaNDM): > 16 µg/mL
MIC ([1]; PA-036, blaNDM): > 16 µg/mL
MIC ([1]; PA-038, blaNDM): > 16 µg/mL
MIC ([1]; PA-039, blaNDM): > 16 µg/mL
MIC ([1]; PA-044, blaNDM): > 16 µg/mL
Compound: CC(C)(O/N=C(\C(=O)N[C@@H]1C(=O)N2C(C(=O)[O-])=C(C[n+]3ccccc3)CS[C@H]12)c1csc(N)n1)C(=O)O [CAZ, ceftazidime]

Compound: CC(C)(C)CC(=O)Oc1c(-c2ccc(F)c(F)c2)oc2cc(O)cc(O)c2c1=O [Compound 3]
IC50 [2]: 24.6 µM
IC50 [3]: 19.2 µM
IC50 [4]: 21.2 µM
IC50 [5]: 22.2 µM
IC50 [6]: 20.3 µM

Compound: CC(C)(C)C(=O)OCOc1c(-c2ccc(F)c(F)c2)oc2cc(O)cc(O)c2c1=O [Compound 4]
IC50 [2]: 15.7 µM
IC50 [3]: 25.4 µM
IC50 [4]: 28.7 µM
IC50 [5]: 33.2 µM
IC50 [6]: 19.3 µM

Compound: CC(C)OC(=O)OCOc1c(-c2ccc(F)c(F)c2)oc2cc(O)cc(O)c2c1=O [Compound 5]
IC50 [2]: > 50 µM
IC50 [3]: > 50 µM
IC50 [4]: 42.7 µM
IC50 [5]: > 50 µM
IC50 [6]: > 100 µM

Compound: CC(C)(C)c1ccc(COc2c(-c3ccc(F)c(F)c3)oc3cc(O)cc(O)c3c2=O)cc1 [Compound 6]
IC50 [2]: 14.1 µM
IC50 [3]: > 50 µM
IC50 [4]: 37.8 µM
IC50 [5]: > 50 µM
IC50 [6]: > 100 µM

Compound: CC(C)c1ccc(COc2c(-c3ccc(F)c(F)c3)oc3cc(O)cc(O)c3c2=O)cc1 [Compound 7]
IC50 [2]: 16.7 µM
IC50 [3]: > 50 µM
IC50 [4]: 6 µM
IC50 [5]: 21.5 µM
IC50 [6]: 13.1 µM

Compound: O=c1c(OCCO)c(-c2ccc(F)c(F)c2)oc2cc(O)cc(O)c12 [Compound 8]
IC50 [2]: > 50 µM
IC50 [3]: > 50 µM
IC50 [4]: > 100 µM
IC50 [5]: > 50 µM
IC50 [6]: > 100 µM

Compound: O=c1c(OCCOCCO)c(-c2ccc(F)c(F)c2)oc2cc(O)cc(O)c12 [Compound 9]
IC50 [2]: > 50 µM
IC50 [3]: > 50 µM
IC50 [4]: > 100 µM
IC50 [5]: > 50 µM
IC50 [6]: > 100 µM
